From ChEMBL document CHEMBL5465560, “Selectivity Literature for EUbOPEN Chemogenomic Library” (2024)

What was measured:
[1] = target: Macrophage colony-stimulating factor 1 receptor (Homo sapiens) (UniProt P07333); assay: Selectivity interaction (KinaseProfiler screening (Millipore)) EUB0000601a CSF1R; conditions: at 3 µM
[2] = tested on: Hepatocyte growth factor receptor (Homo sapiens), P08581 [Y1235D]; assay: (§1) Selectivity interaction (KinomeScan (DiscoverX)) EUB0001079a MET; conditions: at 1 µM
[3] = tested on: Hepatocyte growth factor receptor (Homo sapiens), P08581 [M1250T]; assay: as §1; conditions: at 1 µM
[4] = target: Hepatocyte growth factor receptor (Homo sapiens, UniProt P08581); assay: as §1; conditions: at 1 µM
[5] = target: T1, Serine/threonine-protein kinase Chk1 (Homo sapiens) (UniProt O14757); assay: Selectivity interaction (Kinase panel (KiNativ target engagement assay in Jurkat cells)) EUB0001635a CHEK1; format: cell-based; conditions: at 1 µM
T1 sequence (whole entry): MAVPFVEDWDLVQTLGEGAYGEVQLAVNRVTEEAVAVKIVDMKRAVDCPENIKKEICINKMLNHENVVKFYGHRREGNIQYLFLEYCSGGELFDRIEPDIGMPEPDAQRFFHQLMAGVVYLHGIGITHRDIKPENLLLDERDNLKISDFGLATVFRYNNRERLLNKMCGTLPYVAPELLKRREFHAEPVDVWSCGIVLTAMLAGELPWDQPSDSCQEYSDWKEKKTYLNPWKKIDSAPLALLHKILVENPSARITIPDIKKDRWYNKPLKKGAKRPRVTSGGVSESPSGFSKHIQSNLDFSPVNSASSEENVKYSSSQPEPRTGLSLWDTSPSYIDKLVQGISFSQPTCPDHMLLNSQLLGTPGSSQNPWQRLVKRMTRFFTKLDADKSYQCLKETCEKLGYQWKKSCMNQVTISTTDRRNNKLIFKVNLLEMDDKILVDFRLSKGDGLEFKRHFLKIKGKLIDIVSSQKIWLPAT

[6] = target: DNA-dependent protein kinase catalytic subunit (Homo sapiens) (UniProt P78527); assay: Selectivity interaction (Kinase panel (KiNativ target engagement assay in Jurkat cells)) EUB0001635a PRKDC; format: cell-based; conditions: Selectivity number of off-targets 0.0, Selectivity number of targets 233.0, Source Knowledge https://www.sciencedirect.com/science/article/pii/S2451945619300674?via%3Dihub, at 1 µM
[7] = target: T2, Tyrosine-protein kinase Mer (Homo sapiens) (UniProt Q12866); assay: Selectivity interaction (KinomeScan (DiscoverX)) EUB0000092b MERTK; conditions: at 10 µM
T2 sequence (whole entry): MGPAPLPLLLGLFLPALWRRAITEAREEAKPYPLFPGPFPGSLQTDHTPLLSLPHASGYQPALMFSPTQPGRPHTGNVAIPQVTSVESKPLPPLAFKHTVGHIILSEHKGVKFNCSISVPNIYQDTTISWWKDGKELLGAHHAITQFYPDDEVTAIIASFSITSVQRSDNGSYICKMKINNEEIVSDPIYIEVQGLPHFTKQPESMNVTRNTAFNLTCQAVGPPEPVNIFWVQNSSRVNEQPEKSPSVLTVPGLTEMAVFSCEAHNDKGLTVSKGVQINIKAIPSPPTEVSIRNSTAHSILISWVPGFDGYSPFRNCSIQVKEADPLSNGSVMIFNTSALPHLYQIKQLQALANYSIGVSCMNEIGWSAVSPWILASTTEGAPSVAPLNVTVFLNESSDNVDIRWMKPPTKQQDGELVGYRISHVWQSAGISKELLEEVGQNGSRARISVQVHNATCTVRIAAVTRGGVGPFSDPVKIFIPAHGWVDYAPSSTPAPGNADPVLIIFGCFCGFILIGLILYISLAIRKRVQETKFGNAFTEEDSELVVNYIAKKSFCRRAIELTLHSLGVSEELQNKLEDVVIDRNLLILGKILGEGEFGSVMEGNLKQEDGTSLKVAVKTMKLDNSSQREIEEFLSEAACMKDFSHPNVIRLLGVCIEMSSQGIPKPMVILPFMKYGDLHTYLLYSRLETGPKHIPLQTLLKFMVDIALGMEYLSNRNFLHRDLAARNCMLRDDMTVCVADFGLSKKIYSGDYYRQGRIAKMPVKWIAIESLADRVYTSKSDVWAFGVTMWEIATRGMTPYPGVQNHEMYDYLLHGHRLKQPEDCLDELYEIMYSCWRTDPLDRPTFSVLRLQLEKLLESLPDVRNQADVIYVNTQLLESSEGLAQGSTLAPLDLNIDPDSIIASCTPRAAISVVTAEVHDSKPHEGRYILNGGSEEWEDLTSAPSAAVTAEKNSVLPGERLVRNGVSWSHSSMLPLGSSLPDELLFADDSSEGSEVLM

[8] = target: T3, Dual specificity protein kinase TTK (Homo sapiens) (UniProt P33981); assay: Selectivity interaction (KinomeScan (DiscoverX)) EUB0000695a TTK; conditions: at 100 nM
T3 sequence (whole entry): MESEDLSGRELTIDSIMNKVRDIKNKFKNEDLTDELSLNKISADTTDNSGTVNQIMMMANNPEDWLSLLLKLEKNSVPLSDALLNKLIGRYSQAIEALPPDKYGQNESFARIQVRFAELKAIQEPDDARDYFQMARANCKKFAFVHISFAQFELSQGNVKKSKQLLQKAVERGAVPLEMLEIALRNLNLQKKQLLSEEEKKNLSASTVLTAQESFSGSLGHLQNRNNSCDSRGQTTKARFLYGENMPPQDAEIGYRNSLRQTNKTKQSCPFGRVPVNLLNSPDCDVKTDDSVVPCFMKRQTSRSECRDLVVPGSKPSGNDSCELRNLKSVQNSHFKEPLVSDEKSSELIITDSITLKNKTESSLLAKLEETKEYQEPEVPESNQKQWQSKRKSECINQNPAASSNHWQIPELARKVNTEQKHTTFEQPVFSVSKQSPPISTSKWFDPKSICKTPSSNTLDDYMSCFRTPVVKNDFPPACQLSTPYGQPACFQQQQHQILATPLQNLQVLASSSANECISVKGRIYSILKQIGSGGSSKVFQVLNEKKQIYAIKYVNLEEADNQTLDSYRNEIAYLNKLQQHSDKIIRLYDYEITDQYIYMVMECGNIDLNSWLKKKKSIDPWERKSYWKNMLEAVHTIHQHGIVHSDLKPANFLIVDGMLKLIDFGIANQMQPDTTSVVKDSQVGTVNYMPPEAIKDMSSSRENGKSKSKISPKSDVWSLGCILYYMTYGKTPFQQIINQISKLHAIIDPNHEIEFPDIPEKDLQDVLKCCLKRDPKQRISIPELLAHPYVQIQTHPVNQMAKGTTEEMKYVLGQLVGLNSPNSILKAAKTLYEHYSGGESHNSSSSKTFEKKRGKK

[9] = tested on: eIF-2-alpha kinase GCN2 (Homo sapiens), Q9P2K8 [S808G]; assay: Selectivity interaction (KinomeScan (DiscoverX)) EUB0000607a EIF2AK4; conditions: at 10 µM
[10] = target: Serine/threonine-protein kinase B-raf (Homo sapiens) (UniProt P15056); assay: (§2) Selectivity interaction (Kinase panel (Z-LYTE Assay)) EUB0001632a BRAF; conditions: at 10 µM
[11] = tested on: Serine/threonine-protein kinase B-raf (Homo sapiens), P15056 [V600E]; assay: as §2; conditions: at 10 µM
Serine/threonine-protein kinase B-raf (Homo sapiens), P15056 [V600E], sequence (P15056 whole entry V600E): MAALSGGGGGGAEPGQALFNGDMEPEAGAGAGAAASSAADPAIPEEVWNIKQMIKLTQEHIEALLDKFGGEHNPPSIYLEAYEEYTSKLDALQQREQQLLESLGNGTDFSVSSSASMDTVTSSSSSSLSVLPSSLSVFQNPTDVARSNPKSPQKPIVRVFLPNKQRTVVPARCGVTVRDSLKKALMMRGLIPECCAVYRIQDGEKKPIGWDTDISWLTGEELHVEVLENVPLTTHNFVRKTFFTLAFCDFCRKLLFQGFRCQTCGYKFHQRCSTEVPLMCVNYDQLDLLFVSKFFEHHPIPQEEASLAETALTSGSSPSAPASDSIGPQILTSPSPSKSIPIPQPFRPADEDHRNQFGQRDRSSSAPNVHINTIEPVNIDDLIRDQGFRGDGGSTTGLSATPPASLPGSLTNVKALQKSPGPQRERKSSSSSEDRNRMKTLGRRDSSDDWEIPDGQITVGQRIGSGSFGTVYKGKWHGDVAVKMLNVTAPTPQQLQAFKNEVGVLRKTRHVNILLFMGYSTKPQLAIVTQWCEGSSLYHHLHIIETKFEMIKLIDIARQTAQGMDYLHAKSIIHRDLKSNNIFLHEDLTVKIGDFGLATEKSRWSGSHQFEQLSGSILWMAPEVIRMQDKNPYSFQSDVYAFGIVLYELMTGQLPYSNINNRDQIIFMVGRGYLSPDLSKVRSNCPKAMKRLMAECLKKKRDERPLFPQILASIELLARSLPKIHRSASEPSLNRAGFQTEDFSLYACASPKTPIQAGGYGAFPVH

eIF-2-alpha kinase GCN2 (Homo sapiens), Q9P2K8 [S808G], sequence (Q9P2K8 whole entry S808G): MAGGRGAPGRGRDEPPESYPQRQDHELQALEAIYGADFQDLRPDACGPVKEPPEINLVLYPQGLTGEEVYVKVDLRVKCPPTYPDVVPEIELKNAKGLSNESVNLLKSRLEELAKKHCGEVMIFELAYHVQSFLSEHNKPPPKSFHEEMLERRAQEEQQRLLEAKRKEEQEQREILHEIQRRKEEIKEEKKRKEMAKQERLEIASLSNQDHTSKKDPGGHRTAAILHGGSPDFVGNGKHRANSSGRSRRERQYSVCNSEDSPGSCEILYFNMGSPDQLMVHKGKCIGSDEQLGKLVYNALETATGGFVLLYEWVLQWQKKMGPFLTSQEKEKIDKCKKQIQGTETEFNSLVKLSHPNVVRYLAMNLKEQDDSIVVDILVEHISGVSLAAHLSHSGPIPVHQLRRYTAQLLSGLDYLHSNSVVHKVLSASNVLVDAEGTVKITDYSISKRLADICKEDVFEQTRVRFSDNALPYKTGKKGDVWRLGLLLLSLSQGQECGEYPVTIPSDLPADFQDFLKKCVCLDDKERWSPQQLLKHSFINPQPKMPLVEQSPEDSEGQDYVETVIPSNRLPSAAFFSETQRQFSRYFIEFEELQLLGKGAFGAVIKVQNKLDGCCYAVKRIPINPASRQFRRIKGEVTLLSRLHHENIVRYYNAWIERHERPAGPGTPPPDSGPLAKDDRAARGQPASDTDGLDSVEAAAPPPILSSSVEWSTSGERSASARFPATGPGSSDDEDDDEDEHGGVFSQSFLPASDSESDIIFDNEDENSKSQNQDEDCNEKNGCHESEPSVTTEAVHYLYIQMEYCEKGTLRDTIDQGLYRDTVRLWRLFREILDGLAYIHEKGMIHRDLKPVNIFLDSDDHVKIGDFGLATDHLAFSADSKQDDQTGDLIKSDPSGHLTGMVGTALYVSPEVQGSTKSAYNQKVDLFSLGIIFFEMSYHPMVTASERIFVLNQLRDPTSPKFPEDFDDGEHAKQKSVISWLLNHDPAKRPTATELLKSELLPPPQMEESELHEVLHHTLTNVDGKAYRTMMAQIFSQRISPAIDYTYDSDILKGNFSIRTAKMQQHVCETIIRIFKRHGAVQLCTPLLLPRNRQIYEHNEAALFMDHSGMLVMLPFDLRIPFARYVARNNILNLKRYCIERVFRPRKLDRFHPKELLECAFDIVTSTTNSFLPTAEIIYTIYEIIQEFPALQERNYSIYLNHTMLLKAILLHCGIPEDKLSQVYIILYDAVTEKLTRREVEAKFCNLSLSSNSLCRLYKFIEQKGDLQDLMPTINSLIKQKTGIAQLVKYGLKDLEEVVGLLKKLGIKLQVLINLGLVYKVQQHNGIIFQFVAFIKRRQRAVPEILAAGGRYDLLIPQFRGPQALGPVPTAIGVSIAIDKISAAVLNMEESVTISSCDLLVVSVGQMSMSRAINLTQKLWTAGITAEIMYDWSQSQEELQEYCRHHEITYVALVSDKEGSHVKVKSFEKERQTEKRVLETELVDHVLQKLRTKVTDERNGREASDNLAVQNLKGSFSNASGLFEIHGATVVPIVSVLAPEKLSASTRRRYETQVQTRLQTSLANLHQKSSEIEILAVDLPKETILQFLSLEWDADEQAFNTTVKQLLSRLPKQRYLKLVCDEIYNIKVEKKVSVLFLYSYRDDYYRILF
Hepatocyte growth factor receptor (Homo sapiens), P08581 [M1250T], sequence (P08581 whole entry M1250T): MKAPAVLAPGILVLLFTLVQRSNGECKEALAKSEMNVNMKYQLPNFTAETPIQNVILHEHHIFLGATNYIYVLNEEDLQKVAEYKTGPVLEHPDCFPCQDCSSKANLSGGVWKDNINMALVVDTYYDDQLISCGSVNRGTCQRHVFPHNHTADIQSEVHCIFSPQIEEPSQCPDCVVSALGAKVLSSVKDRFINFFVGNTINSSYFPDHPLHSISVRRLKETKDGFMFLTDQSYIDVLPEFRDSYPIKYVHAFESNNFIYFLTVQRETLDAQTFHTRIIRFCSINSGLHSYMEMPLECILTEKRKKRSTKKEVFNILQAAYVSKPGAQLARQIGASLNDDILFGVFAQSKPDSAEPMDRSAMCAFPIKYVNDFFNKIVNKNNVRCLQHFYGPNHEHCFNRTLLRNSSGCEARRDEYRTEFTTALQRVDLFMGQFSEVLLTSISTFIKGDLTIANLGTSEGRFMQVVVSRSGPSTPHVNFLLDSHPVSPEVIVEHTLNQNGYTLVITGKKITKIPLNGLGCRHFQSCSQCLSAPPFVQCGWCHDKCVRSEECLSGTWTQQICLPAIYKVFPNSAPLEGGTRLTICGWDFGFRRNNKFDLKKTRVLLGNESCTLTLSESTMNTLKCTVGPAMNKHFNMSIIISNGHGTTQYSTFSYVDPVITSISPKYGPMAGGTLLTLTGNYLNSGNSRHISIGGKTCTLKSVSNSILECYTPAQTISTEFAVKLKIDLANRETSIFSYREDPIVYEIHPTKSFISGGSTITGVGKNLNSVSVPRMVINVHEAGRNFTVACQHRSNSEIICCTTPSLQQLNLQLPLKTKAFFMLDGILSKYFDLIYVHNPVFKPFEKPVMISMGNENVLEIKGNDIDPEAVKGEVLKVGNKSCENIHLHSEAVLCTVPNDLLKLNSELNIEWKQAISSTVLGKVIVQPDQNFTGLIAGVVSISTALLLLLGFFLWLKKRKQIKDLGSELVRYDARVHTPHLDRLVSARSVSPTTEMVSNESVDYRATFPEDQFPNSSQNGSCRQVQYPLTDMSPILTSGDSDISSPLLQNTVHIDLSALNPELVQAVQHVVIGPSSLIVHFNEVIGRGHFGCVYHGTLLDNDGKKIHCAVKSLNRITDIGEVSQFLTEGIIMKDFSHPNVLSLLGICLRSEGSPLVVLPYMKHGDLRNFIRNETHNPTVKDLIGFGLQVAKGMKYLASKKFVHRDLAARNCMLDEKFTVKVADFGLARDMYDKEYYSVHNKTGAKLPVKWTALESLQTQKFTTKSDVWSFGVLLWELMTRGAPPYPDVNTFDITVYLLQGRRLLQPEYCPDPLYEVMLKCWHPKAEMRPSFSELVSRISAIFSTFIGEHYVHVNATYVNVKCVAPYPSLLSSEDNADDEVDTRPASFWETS
Serine/threonine-protein kinase B-raf (Homo sapiens), sequence (P15056 whole entry): as the sequence (P15056 whole entry V600E) above, with E600V counted along it
Macrophage colony-stimulating factor 1 receptor (Homo sapiens), sequence (P07333 whole entry): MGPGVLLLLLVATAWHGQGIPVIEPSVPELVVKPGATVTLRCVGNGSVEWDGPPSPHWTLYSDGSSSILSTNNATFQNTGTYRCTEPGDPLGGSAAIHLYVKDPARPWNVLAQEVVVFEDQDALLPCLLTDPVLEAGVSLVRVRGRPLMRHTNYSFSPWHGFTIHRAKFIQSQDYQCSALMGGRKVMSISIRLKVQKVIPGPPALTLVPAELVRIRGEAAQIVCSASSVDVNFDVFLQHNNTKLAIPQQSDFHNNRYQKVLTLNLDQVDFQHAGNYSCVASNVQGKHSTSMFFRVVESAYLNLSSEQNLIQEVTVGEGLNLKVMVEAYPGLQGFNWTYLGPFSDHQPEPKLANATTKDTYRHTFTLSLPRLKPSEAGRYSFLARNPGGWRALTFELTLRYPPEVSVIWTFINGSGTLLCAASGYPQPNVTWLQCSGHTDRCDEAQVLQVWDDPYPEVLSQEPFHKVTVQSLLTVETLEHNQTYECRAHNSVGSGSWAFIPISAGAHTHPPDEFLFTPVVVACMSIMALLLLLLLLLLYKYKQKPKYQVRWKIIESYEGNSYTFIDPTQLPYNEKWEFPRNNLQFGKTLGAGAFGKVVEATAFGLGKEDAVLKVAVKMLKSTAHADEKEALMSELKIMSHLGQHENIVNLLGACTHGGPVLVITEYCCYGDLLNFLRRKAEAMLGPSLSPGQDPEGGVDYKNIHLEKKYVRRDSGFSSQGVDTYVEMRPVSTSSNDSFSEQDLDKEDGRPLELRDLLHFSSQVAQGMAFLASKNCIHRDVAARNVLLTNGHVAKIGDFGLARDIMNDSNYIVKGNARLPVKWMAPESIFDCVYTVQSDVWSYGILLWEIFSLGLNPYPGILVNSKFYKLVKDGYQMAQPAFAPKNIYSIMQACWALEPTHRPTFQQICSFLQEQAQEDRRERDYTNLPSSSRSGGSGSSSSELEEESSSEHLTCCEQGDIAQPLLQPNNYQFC

Work on `CCc1cc(Nc2nccc(-c3c(-c4ccc(OC)c(C(=O)Nc5c(F)cccc5F)c4)nc4ccccn34)n2)c(OC)cc1N1CCC(N2CCN(S(C)(=O)=O)CC2)CC1` yielded a % of inhibition [1] of 50%.

`Nc1cnc(N2CCc3cc(S(=O)(=O)Nc4c(F)cc(Cl)cc4F)cc(N4CCCC4=O)c32)nc1` [TP-020n] was tested, and the % of control [2] was 69%, the % of control [3] was 100% and the % of control [4] was 69%.

In the case of `C=CC(=O)Nc1ccc(C(=O)Nc2[nH]nc3c2CN(C(=O)N[C@H](CN(C)C)c2ccccc2)C3(C)C)cc1`, the % of engagement ([5]; Selectivity number of off-targets 0.0, Selectivity number of targets 233.0, Source Knowledge https://www.sciencedirect.com/science/article/pii/S2451945619300674?via%3Dihub) is reported as 5.4%, the % of engagement [5] is reported as 16.4% and the % of engagement [6] is reported as -21.9%.

For `CCC(=O)N1CCN(c2ccc(-n3c(=O)ccc4cnc5ccc(-c6cnc7ccccc7c6)cc5c43)cc2C(F)(F)F)CC1`, the % of control [7] was 53%.

Work on `Cc1cc(F)c(C(=O)Nc2cccc(-c3nncn3C(C)C)n2)cc1-n1cnc(C2CC2)c1` yielded a % of control [8] of 87%.

Work on `CNC(=O)Nc1ccc(-c2nc(N3CC4CCC(C3)O4)c3cnn(C4CCC5(CC4)OCCO5)c3n2)cc1` yielded a % of control [9] of 83%.

For `Cn1cc(-n2cnc3c(NCc4nc5cc(Cl)c(Cl)cc5[nH]4)nc(N4CCOCC4)nc32)cn1`, the % of control [10] was -4.02% and the % of control [11] was 46.2%.
